Data on 9 molecules can be found in patent publication US11319321B2, “[1,2,4]triazolo[1,5-a]pyrimidine compounds as PDE2 inhibitors” (Janssen Pharmaceutica NV, priority 2016, dated 2022).

Where two headings read alike, the source gives them in different places.

Data set [1] concerns the target hPDE10A2 (Homo sapiens, UniProt Q9Y233). The data set is described as follows: biochemical. The conditions noted are these: 60 nM cAMP substrate; for IC50: read-out: hPDE10A2 or rPDE10A2 pIC50 (converted); for Emax: read-out: hPDE10A2 or rPDE10A2 Emax, human clone. The essentials:
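His-purified rat or human PDE10A2 from baculovirus-infected Sf9 cells was incubated with compound in 50 mM Tris pH 7.8, 8.3 mM MgCl2, 1.7 mM EGTA plus 60 nM cAMP and […] 3H-cAMP, 60 min at room temperature. Product captured by SPA beads; IC50 fitted from % control (1% DMSO) minus enzyme-free blank.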

Data set [2] concerns hPDE3B. Kind of data set: In vitro assay PDE3 (SPA, 3H-cAMP). Format: biochemical, human. The conditions noted are these: 0.4 μM cAMP substrate; for hPDE3B Emax: in % (unit assumed).
Data set [3] addresses T1, Human recombinant PDE2A (hPDE2A) (Homo sapiens, UniProt O00408).
T1 construct: made in house; host or cells: Sf9 insect cells (baculovirus)
Kind of data set: In vitro assay PDE2A (SPA, 3H-cGMP). Format: biochemical. The procedure, abridged: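 Sf9-expressed, Ni-sepharose-purified enzyme in 50 mM Tris pH 7.8, 8.3 mM MgCl2, 1.7 mM EGTA with 10 μM cGMP plus 0.01 μCi 3H-cGMP (final), 1% DMSO. Reaction 45 min at room temperature; SPA bead radioactivity counted as cpm, blanks without enzyme, controls with DMSO instead of compound.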

Data set [4] has as its target T2, PDE2A (Rattus norvegicus, UniProt Q01062).
T2 construct: Twenty μm-thick striatal sections were cut; from tissue; host or cells: rat brain, striatal sections
T2 sequence (Q01062 1-928): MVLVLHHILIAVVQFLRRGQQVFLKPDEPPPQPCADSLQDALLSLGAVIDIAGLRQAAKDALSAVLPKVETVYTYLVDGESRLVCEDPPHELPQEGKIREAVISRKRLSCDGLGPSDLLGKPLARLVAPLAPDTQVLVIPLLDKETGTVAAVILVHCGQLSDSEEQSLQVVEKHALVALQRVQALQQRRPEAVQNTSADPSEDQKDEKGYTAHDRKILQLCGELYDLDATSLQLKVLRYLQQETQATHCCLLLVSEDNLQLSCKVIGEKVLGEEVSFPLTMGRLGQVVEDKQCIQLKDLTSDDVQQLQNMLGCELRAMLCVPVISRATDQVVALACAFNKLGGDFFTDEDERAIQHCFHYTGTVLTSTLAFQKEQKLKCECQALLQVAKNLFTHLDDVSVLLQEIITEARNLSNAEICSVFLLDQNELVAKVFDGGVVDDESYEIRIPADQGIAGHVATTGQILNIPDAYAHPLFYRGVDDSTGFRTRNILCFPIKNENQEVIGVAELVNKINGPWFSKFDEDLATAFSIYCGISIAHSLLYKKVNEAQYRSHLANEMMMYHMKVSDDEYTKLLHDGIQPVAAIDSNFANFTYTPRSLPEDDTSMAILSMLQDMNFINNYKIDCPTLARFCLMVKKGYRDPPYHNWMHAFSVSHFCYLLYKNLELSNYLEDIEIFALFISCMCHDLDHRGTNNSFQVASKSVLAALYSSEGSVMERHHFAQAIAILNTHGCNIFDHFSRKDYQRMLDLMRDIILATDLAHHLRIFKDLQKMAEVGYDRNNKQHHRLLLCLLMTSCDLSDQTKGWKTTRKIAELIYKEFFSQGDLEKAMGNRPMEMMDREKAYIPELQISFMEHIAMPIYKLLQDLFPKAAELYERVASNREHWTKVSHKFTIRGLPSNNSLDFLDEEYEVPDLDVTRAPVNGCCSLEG
The data set is described as follows: PDE2 occupancy by ex-vivo autoradiography with [3H]B-17a. The data set is classed as in vivo. The conditions noted are these: read-out: PDE2 occupancy at 10 mg/kg. As to the method: Brains were immediately removed from the skull and rapidly frozen in dry-ice cooled 2-methylbutane (−40° C.).
After thawing, sections were dried under a cold stream of air and incubated for one minute with 30 nM [^3H]B-17a in Tris-HCl (50 mM, pH7.4) containing 0.3% BSA. Brain sections from drug-treated and vehicle-treated animals were incubated in parallel. […] After incubation, the excess of [^3H]B-17a was washed off in ice-cold buffer 2 times 10 minutes, followed by a quick dip in distilled water. The sections were then dried under a stream of cold air.
Brain sections were loaded in a […] (Biospace, Paris) for 4 h and radioactivity emerging from delineated brain area was quantified using the Beta vision program (Biospace, Paris). Specific binding was determined as the difference between total binding in the striatum and non-specific binding in the cerebellum. Percentage receptor occupancy of the drug administered to the animal corresponded to 100% minus the percentage receptor labeled in the treated animal. For the determination of ED50-values, the percentage of receptor occupancy was plotted against dose and the sigmoidal log dose-effect curve of best fit was calculated by non-linear regression analysis, using the GraphPad Prism program.

The target in data set [5] is T3, rPDE10A2 (Rattus norvegicus, UniProt Q9QYJ6).
T3 construct: made in house; host or cells: Sf9 insect cells (baculovirus)
T3 sequence (Q9QYJ6 1-794): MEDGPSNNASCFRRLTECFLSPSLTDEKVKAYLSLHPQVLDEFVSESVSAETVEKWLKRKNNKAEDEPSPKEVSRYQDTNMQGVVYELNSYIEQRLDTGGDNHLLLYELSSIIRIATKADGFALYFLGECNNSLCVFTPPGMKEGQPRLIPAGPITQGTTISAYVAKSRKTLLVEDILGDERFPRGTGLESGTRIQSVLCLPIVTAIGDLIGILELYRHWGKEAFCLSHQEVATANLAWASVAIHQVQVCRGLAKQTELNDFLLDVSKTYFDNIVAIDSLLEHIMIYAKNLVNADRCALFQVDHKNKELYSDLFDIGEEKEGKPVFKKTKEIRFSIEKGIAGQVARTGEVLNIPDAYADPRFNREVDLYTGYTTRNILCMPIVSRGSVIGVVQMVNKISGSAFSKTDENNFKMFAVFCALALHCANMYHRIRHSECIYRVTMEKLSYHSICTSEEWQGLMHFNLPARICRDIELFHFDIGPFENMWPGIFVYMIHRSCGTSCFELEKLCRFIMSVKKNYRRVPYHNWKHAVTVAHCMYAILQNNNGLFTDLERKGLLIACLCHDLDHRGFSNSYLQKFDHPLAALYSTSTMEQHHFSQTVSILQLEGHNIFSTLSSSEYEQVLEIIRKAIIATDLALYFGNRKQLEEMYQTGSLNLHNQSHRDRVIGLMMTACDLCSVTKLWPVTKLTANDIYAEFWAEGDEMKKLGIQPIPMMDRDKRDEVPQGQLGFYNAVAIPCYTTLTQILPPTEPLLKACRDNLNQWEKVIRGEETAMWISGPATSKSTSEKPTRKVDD
The data set is described as follows: In vitro assay PDE10A, rat clone (SPA, 3H-cAMP). The conditions noted are these: for IC50: rat clone (r), 60 nM cAMP substrate, read-out: hPDE10A2 or rPDE10A2 pIC50 (converted); for Emax: read-out: hPDE10A2 or rPDE10A2 Emax. Format: biochemical. The method, then: Rat recombinant PDE10A (rPDE10A2) was expressed in Sf9 cells using a recombinant rPDE10A baculovirus construct. Cells were harvested after 48 h of infection and the rPDE10A protein was purified by metal chelate chromatography on Ni-sepharose 6FF. Tested compounds were dissolved and diluted in 100% DMSO to a concentration 100 fold of the final concentration in the assay. Human recombinant PDE10A ([…]) was expressed in Sf9 cells using a recombinant hPDE10A baculovirus that was made and amplified in house. Cells were harvested after 72 h of infection and the hPDE10A protein was purified by metal chelate chromatography on Ni-sepharose. Compound dilutions (0.4 μl) were added in 384 well plates to 20 μl of incubation buffer (50 mM Tris pH 7.8, 8.3 mM MgCl2, 1.7 mM EGTA). 10 μl of rPDE10A or hPDE10A enzyme in incubation buffer was added and the reaction was started by addition of 10 μl substrate to a final concentration of 60 nM cAMP and […] ^3H-cAMP. The reaction was incubated for 60 minutes at room temperature. After incubation, the reaction was stopped with 20 μl of stop solution consisting of 17.8 mg/ml PDE SPA (scintillation proximity assay) beads. After sedimentation of the beads during 30 minutes the radioactivity was measured in a Perkin Elmer Topcount scintillation counter and results were expressed as cpm. For blanc values the enzyme was omitted from the reaction and replaced by incubation buffer. Control values were obtained by addition of a final concentration of 1% DMSO instead of compound. A best fit curve is fitted by a minimum sum of squares method to the plot of % of control value substracted with blanc value versus compound concentration and the half maximal inhibitory concentration (IC50) value is derived from this curve.

The mark [6] stands for this setting: hPDE2A pIC50, 10 μM cGMP substrate.
Where [7] appears, read: male Wistar rats, 10 mg/kg SC (subcutaneous), striatum, percentage occupancy.

hPDE10A2, sequence (Q9Y233 267-1055): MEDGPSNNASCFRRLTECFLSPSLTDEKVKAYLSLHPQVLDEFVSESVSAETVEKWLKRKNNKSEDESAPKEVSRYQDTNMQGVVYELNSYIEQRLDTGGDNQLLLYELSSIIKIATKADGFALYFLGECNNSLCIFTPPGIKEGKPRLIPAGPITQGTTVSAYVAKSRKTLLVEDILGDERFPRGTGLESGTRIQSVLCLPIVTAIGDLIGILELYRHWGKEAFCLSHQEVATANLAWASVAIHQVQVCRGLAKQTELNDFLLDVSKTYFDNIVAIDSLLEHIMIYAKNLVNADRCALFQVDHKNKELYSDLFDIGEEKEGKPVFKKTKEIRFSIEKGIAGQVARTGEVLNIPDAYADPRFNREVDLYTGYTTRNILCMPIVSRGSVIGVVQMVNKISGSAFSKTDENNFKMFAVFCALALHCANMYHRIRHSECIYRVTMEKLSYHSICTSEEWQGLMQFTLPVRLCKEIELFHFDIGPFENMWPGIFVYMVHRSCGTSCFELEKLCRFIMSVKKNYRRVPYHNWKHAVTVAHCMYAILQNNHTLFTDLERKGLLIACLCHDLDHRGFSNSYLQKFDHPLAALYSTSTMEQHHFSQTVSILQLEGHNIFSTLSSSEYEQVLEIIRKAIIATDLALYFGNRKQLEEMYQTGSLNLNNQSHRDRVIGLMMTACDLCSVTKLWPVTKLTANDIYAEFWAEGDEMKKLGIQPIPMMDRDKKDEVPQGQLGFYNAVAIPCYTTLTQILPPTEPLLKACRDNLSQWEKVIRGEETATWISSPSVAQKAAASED
T1 sequence (O00408 whole entry): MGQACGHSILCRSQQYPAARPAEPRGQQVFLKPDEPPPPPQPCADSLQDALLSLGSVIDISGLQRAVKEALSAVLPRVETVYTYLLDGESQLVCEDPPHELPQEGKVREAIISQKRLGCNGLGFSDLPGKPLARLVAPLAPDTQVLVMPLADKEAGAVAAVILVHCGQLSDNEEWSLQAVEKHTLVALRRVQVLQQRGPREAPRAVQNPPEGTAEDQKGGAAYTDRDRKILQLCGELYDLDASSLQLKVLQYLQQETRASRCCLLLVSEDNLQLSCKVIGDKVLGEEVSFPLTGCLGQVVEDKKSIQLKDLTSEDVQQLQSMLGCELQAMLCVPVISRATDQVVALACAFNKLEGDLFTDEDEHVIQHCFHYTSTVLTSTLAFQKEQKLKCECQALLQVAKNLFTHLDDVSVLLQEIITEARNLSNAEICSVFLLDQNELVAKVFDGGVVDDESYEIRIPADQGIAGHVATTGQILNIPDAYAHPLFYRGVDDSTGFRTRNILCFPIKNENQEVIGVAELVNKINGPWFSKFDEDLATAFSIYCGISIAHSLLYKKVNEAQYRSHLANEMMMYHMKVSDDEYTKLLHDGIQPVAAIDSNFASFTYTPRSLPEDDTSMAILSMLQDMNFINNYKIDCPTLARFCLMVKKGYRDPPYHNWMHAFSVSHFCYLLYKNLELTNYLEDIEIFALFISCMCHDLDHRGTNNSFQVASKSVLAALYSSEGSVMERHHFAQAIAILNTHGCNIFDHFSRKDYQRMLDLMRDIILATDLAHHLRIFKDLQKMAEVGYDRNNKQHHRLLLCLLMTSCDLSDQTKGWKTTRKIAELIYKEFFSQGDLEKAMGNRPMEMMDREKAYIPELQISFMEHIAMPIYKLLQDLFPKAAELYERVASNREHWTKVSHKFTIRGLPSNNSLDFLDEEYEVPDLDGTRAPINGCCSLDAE

Regarding `Cc1cc(C(C)N2CC[C@@H](C)[C@H](c3cc(C(F)F)nc4ncnn34)C2)cc(C)n1` (single isomer, unassigned) [Compound 1a, 5-(difluoromethyl)-7-[(3 S,4R)-1-[(1R*)-1-(2,6-dimethyl-4-pyridyl)ethyl]-4-methyl-3-piperidyl]-[1,2,4]triazolo[1,5-a]pyrimidine], the melting point (in general, the temperature of the solid-liquid transition) was 141.46 °C. Also, the IC50 in data set [1] (human clone) was 5620 nM. Besides, the Emax (in general, the size of the effect at its maximum, as opposed to the concentration needed) in data set [1] worked out at 64%. Moreover, in data set [2], the “hPDE3B pIC50” value is recorded as less than 5 and the “hPDE3B Emax” value is given as 34. In addition, the Emax in data set [3] (10 μM cGMP substrate) came out at 99%. Also, the IC50 in data set [3] (setting [6]) was 102 nM.
With `Cc1cc(C(C)N2CC[C@@H](C)[C@H](c3cc(C(F)F)nc4ncnn34)C2)cc(C)n1` (single isomer, unassigned) [Compound 1b, 5-(difluoromethyl)-7-[(3 S,4R)-1-[(1S*)-1-(2,6-dimethyl-4-pyridyl)ethyl]-4-methyl-3-piperidyl]-[1,2,4]triazolo[1,5-a]pyrimidine], in data set [1] (human clone), the “hPDE10A2 or rPDE10A2 Emax” value is recorded as 80 and the IC50 is 2880 nM. The receptor occupancy at 10 mg/kg in data set [4] (setting [7]) was determined as 42%. In data set [2], the “hPDE3B pIC50” value is less than 5 and the “hPDE3B Emax” value is 19. For the same molecule, the “hPDE2A Emax” value in data set [3] (10 μM cGMP substrate) is 100. Besides, the IC50 in data set [3] (setting [6]) was 11.7 nM.
Take `C[C@@H]1CCN(Cc2cc3ccccc3cn2)C[C@H]1c1cc(C(F)F)nc2ncnn12` [Compound 8]: the IC50 in data set [1] (human clone) was 1480 nM; in data set [3] (setting [6]), 8.51 nM. Moreover, the values for the Emax in data set [1] and in data set [3] (10 μM cGMP substrate) were 85% and 100%, respectively. Also, in data set [4] (setting [7]), the receptor occupancy at 10 mg/kg stood at 0%. Also, the “hPDE3B pIC50” value in data set [2] is 5.09. Moreover, in data set [2], the “hPDE3B Emax” value was 61.
With `C[C@@H]1CCN(Cc2cccc(N3CCCCC3)n2)C[C@H]1c1cc(C(F)F)nc2ncnn12` [Compound 17], the melting point amounted to 137.52 °C. In addition, the IC50 in data set [1] (human clone) is more than 10000 nM. For the same molecule, the Emax in data set [1] worked out at 49%. In addition, in data set [2], the “hPDE3B pIC50” value is less than 5 and the “hPDE3B Emax” value is reported as 41. Further, the Emax in data set [3] (10 μM cGMP substrate) is 100%. The IC50 in data set [3] (setting [6]) is 195 nM.
Turning to `Cc1cc(CN2CCCC(C)(c3cc(C(F)F)nc4ncnn34)C2)cc(Cl)n1` (stereo not drawn) [Compound 28], in data set [5], the IC50 was more than 10000 nM and the Emax was 7.2%. Moreover, in data set [2], the “hPDE3B pIC50” value was less than 5 and the “hPDE3B Emax” value worked out at 10. Moreover, in data set [3], the IC50 was 5620 nM. For the same molecule, the Emax in data set [3] (10 μM cGMP substrate) was 16%.
For the molecule `Cc1cc(CN2CC[C@@H](C)[C@H](c3cc(C(F)F)nc4ncnn34)C2)cc(C)n1.Cl` [Compound 33], the values for the IC50 in data set [1] (human clone) and in data set [3] were 4070 nM and 22.4 nM, respectively. Also, the maximal response (Emax) in data set [1] is 72%; in data set [3] (10 μM cGMP substrate) it was 96%. Also, the receptor occupancy at 10 mg/kg in data set [4] (setting [7]) was determined as 37%. Moreover, the “hPDE3B pIC50” value in data set [2] was less than 5. Further, in data set [2], the “hPDE3B Emax” value was found to be 8.
On to `C[C@@H]1CCN(Cc2ccc3nccn3c2)C[C@H]1c1cc(C(F)F)nc2ncnn12` [Compound 34], for which the IC50 is 4680 nM in data set [1] (human clone) and 22.9 nM in data set [3]. Besides, the maximal effect (Emax) in data set [1] came out at 67%; in data set [3] (10 μM cGMP substrate) it was 91%. Moreover, the receptor occupancy at 10 mg/kg in data set [4] (po) is 0%. In data set [2], the “hPDE3B pIC50” value is given as less than 5. Besides, the “hPDE3B Emax” value in data set [2] is reported as 18.
Take `Cc1cc(CN2CC[C@@H](C)[C@H](c3cc(C(F)F)nc4ncnn34)C2)cc(C)c1Cl.Cl` [Compound 36]: the IC50 is 3720 nM in data set [1] (human clone) and 56.2 nM in data set [3]. Further, the Emax turned out to be 82% in data set [1] and 100% in data set [3] (10 μM cGMP substrate). For the same molecule, in data set [4] (po), the receptor occupancy at 10 mg/kg stood at 0%. The “hPDE3B Emax” value in data set [2] was determined as 43.
`FC(F)c1cc(C2CCCN(Cc3cc4ccccc4o3)C2)n2ncnc2n1` (stereo not drawn) [Compound 37]: in data set [5], the IC50 is 1050 nM and the Emax turned out to be 50.7%. In data set [2], the “hPDE3B pIC50” value is recorded as 5.92 and the “hPDE3B Emax” value was 88. For the same molecule, the Emax in data set [3] (10 μM cGMP substrate) turned out to be 81%. For the same molecule, the IC50 in data set [3] (setting [6]) was 200 nM.
